Results from paper PMC7617459, “Comparative Evaluation and Profiling of Chemical Tools for the Nuclear Hormone Receptor Family 2” (ACS pharmacology & translational science, 2025).
Each block holds one molecule with its values, some of them ahead of it.

Key:
[1] = test system: COUP-TF2 target genes FOXM1 and CDK1; set-up: method as in PMID 32494682; conditions: prostate cancer cells; cited from earlier work
prostate cancer tumor = test system: prostate cancer tumor; set-up: method as in PMID 32494682; conditions: xenograft mouse model, 2.6 mg/kg; cited from earlier work
[2] = test system: HNF4α, RXRα, PPARα, LXRα, GR, PR, ER, RAR, RORγ, AR, and COUP-TF1; set-up: method as in PMID 32494682; conditions: cited from earlier work
COUP-TF2 = test system: COUP-TF2; set-up: method as in PMID 32494682; conditions: reporter gene assay; cited from earlier work
[3] = test system: NR2F1-regulated genes SOX9, RARβ, and p27; set-up: method as in PMID 34812843; conditions: chicken embryo chorioallantoic membrane tumors; cited from earlier work
NR2F1 [4] = test system: NR2F1; set-up: method as in PMID 34812843; conditions: T-Hep3 cells on chicken embryo chorioallantoic membrane; cited from earlier work
[5] = test system: head and neck squamous-cell carcinoma (HNSCC); set-up: method as in PMID 34812843; conditions: mice; cited from earlier work
NR2F1 [6] = test system: NR2F1; set-up: method as in PMID 34812843; conditions: cited from earlier work
PNR (NR2E3) = target: T1, PNR (NR2E3) (Homo sapiens, UniProt Q9Y5X4); assay: Gal4-hybrid reporter gene assay PNR; assay type: cell-based; conditions: selected test concentration (Figure 3)
T1 construct: encoding the hinge region and the LBD of the canonical isoform of the respective human nuclear receptors; expressed in transfected cells; host or cells: HEK293T
T1 sequence (Q9Y5X4 169-410 limits assumed): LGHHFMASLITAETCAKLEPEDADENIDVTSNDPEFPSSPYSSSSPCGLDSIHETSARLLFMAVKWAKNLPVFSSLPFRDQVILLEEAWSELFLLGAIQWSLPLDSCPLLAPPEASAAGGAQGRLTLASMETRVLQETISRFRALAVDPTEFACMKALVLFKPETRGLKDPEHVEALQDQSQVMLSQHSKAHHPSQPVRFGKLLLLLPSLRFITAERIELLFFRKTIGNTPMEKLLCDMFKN
Description: Gal4-hybrid reporter gene assays were performed as described previously using the plasmids pFA-CMV-hTHRα-LBD,[170] pFA-CMV-hRARα-LBD,[171] pFA-CMV-hPPARα-LBD,[172] pFA-CMV-hPPARγ-LBD,[172] pFA-CMV-hPPARδ-LBD,[172] pFA-CMV-revERBα-LBD,[158] pFA-CMV-hRORα-LBD,[173] pFA-CMV-hLXRα-LBD,[118] pFA-CMV-hFXR-LBD,[174] pFA-CMV-hVDR-LBD,[171] pFA-CMV-hCAR-LBD,[171] pFA-CMV-hHNF4α-LBD,[110] pFA-CMV-hRXRα-LBD,[175] pFA-CMV-hTR2-LBD,[102] pFA-CMV-hTR4-LBD,[102] pFA-CMV-hTLX-LBD,[102] pFA-CMV-hNR2E3-LBD,[102] pFA-CMV-hNur77-LBD,[176] pFA-CMV-hSF1-LBD[158] encoding the hinge region and the LBD of the canonical isoform of the respective human nuclear receptors. pFR-Luc (Stratagene, La Jolla, CA, USA) was used as a reporter plasmid, and pRL-SV40 (Promega, Madison, WI, USA) was used for normalization of transfection efficiency and cell growth. HEK293T cells (German Collection of Microorganisms and Cell Culture GmbH, DSMZ) were cultured in Dulbecco’s modified Eagle’s medium (DMEM), high glucose supplemented with 10% fetal calf serum (FCS), sodium pyruvate (1 mM), penicillin (100 U/mL), and streptomycin (100 μg/mL) at 37 °C and 5% CO2 and seeded in 96-well plates (3 × 10^4 cells/well). The medium was changed to Opti-MEM without supplements, and the cells were transiently transfected with one pFA-CMV-hNR-LBD clone, pFR-Luc, and pRL-SV40 using Lipofectamine LTX reagent (Invitrogen, Thermo Fisher Scientific) according to the manufacturer’s instructions. Five hours after transfection, cells were incubated with the test compounds in Opti-MEM supplemented with penicillin (100 U/mL), streptomycin (100 μg/mL), and 0.1% DMSO. Each sample was set up in duplicates and tested in at least three independent experiments. After 16 h incubation, luciferase activity was measured using the Dual-Glo Luciferase Assay System (Promega) according to the manufacturer’s protocol on a Tecan Spark luminometer (Tecan Deutschland GmbH, Crailsheim, Germany). Firefly luminescence was divided by Renilla luminescence and multiplied by 1000 resulting in relative light units (RLUs) to normalize for transfection efficiency and cell growth. Fold activation was obtained by dividing the mean RLU of the test compound by the mean^a RLU of the untreated control, and relative activation was calculated by dividing the fold activation of a test sample by the fold activation of the respective reference agonist. Antagonistic effects were evaluated by coincubation of the test compound with the respective reference ligand.

full-length TLX = conditions: reporter gene assay; read-out: IC50 (second value of cell; full-length TLX); cited from earlier work
HEK293T cells = conditions: cited from earlier work
RARs and RXRs = test system: RARs and RXRs; set-up: method as in PMID 32763139; conditions: cited from earlier work
TLX LBD = conditions: FP assay, cited from earlier work
RARα = RARα (Homo sapiens, UniProt P10276); conditions: selected test concentration (Figure 3)
Chain of RARα (P10276 183-417 limits assumed): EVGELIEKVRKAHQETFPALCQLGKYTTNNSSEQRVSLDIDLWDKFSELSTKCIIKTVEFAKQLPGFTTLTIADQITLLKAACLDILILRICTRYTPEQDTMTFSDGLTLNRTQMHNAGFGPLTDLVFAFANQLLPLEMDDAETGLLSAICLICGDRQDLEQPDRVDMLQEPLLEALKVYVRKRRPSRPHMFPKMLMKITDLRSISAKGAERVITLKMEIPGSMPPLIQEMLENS
Description: HEK293T cells (German Collection of Microorganisms and Cell Culture GmbH, DSMZ) were cultured in Dulbecco’s modified Eagle’s medium (DMEM), high glucose supplemented with 10% fetal calf serum (FCS), sodium pyruvate (1 mM), penicillin (100 U/mL), and streptomycin (100 μg/mL) at 37 °C and 5% CO2 and seeded in 96-well plates (3 × 10^4 cells/well). The medium was changed to Opti-MEM without supplements, and the cells were transiently transfected with one pFA-CMV-hNR-LBD clone, pFR-Luc, and pRL-SV40 using Lipofectamine LTX reagent (Invitrogen, Thermo Fisher Scientific) according to the manufacturer’s instructions. […] After 16 h incubation, luciferase activity was measured using the Dual-Glo Luciferase Assay System (Promega) according to the manufacturer’s protocol on a Tecan Spark luminometer (Tecan Deutschland GmbH, Crailsheim, Germany). Firefly luminescence was divided by Renilla luminescence and multiplied by 1000 resulting in relative light units (RLUs) to normalize for transfection efficiency and cell growth. Fold activation was obtained by dividing the mean RLU of the test compound by the mean^a RLU of the untreated control, and relative activation was calculated by dividing the fold activation of a test sample by the fold activation of the respective reference agonist. Antagonistic effects were evaluated by coincubation of the test compound with the respective reference ligand.

TLX [7] = conditions: reporter gene assay; read-out: IC50 (first value of cell; TLX/Gal4); cited from earlier work
TLX [8] = target: T2, TLX (Homo sapiens, UniProt Q9Y466); assay: Gal4-hybrid reporter gene assay TLX; assay type: cell-based; conditions: selected test concentration (Figure 3)
T2 construct: encoding the hinge region and the LBD of the canonical isoform of the respective human nuclear receptors; expressed in transfected cells; host or cells: HEK293T
T2 sequence (Q9Y466 155-383 limits assumed): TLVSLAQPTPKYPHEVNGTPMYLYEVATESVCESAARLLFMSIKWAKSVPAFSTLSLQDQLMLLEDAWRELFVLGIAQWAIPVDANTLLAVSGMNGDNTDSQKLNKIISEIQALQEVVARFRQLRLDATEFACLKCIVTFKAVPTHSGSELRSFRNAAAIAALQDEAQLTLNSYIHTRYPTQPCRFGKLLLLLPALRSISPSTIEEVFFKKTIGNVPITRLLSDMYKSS

RXRα [9] = conditions: reporter gene assay; read-out: RXRα cellular activity/potency; cited from earlier work
RXRα [10] = target: T3, RXRα (Homo sapiens, UniProt P19793); assay: Gal4-hybrid reporter gene assay RXRα; conditions: 1 µM
T3 sequence (P19793 227-458 limits assumed): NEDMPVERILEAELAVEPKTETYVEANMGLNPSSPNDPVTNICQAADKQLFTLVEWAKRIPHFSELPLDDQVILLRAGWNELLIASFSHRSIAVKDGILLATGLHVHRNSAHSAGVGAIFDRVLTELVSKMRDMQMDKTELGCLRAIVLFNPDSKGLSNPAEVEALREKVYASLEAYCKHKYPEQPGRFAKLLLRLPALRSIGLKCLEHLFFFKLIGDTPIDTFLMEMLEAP

TR4 = target: T4, TR4 (Homo sapiens, UniProt P49116); assay: Gal4-hybrid reporter gene assay TR4; assay type: cell-based; conditions: 1 µM
T4 construct: encoding the hinge region and the LBD of the canonical isoform of the respective human nuclear receptors; expressed in transfected cells; host or cells: HEK293T
T4 sequence (P49116 341-583 limits assumed): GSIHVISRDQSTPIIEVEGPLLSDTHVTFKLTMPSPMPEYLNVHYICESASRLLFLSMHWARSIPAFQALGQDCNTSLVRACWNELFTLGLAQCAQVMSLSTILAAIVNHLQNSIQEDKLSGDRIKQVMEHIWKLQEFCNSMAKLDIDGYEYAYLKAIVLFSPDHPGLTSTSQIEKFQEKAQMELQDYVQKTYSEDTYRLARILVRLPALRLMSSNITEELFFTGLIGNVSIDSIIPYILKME
Description: (§1) Gal4-hybrid reporter gene assays were performed as described previously using the plasmids pFA-CMV-hTHRα-LBD,[170] pFA-CMV-hRARα-LBD,[171] pFA-CMV-hPPARα-LBD,[172] pFA-CMV-hPPARγ-LBD,[172] pFA-CMV-hPPARδ-LBD,[172] pFA-CMV-revERBα-LBD,[158] pFA-CMV-hRORα-LBD,[173] pFA-CMV-hLXRα-LBD,[118] pFA-CMV-hFXR-LBD,[174] pFA-CMV-hVDR-LBD,[171] pFA-CMV-hCAR-LBD,[171] pFA-CMV-hHNF4α-LBD,[110] pFA-CMV-hRXRα-LBD,[175] pFA-CMV-hTR2-LBD,[102] pFA-CMV-hTR4-LBD,[102] pFA-CMV-hTLX-LBD,[102] pFA-CMV-hNR2E3-LBD,[102] pFA-CMV-hNur77-LBD,[176] pFA-CMV-hSF1-LBD[158] encoding the hinge region and the LBD of the canonical isoform of the respective human nuclear receptors. pFR-Luc (Stratagene, La Jolla, CA, USA) was used as a reporter plasmid, and pRL-SV40 (Promega, Madison, WI, USA) was used for normalization of transfection efficiency and cell growth. […] After 16 h incubation, luciferase activity was measured using the Dual-Glo Luciferase Assay System (Promega) according to the manufacturer’s protocol on a Tecan Spark luminometer (Tecan Deutschland GmbH, Crailsheim, Germany). Firefly luminescence was divided by Renilla luminescence and multiplied by 1000 resulting in relative light units (RLUs) to normalize for transfection efficiency and cell growth. […] Antagonistic effects were evaluated by coincubation of the test compound with the respective reference ligand.

RXRγ = conditions: reporter gene assay; read-out: RXRγ cellular activity/potency; cited from earlier work
TR2 = target: T5, TR2 (Homo sapiens, UniProt P13056); assay: Gal4-hybrid reporter gene assay TR2; assay type: cell-based; conditions: 1 µM
T5 construct: encoding the hinge region and the LBD of the canonical isoform of the respective human nuclear receptors; expressed in transfected cells; host or cells: HEK293T
T5 sequence (P13056 348-590 limits assumed): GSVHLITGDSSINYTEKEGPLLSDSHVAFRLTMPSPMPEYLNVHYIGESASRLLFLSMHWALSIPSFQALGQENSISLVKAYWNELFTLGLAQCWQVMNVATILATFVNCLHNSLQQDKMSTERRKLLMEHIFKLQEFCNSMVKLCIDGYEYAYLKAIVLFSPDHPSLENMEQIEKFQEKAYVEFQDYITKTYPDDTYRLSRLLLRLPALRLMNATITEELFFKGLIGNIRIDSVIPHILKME
Description: as §1

RXRβ = conditions: reporter gene assay; read-out: RXRβ cellular activity/potency; cited from earlier work

SMILES: COc1ccc(CCNc2ncnc3sc(C)cc23)cc1OC [compound 27]
expression of COUP-TF2 target genes FOXM1 and CDK1 [1]: altered expression
prostate cancer tumor growth and angiogenesis (prostate cancer tumor): inhibited prostate cancer tumor growth and angiogenesis
interaction with related NRs in pulldown assay [2]: no relevant interaction
IC50 (COUP-TF2): 3200 nM

SMILES: CCSc1nnc2n(CCc3ccccc3)c(=O)c3c(n12)-c1ccccc1CC31CCCCC1 [compound 26]
expression of NR2F1-regulated genes SOX9, RARβ, and p27 [3]: induced expression
increase in NR2F1 mRNA (NR2F1 [4]): 2.3 fold
increase in NR2F1 protein levels (NR2F1 [4]): 10 fold
tumor growth and metastasis of HNSCC [5]: inhibited tumor growth and metastasis
fold activation @ 0.1 μM (NR2F1 [6]; reporter gene assay, 0.1 μM): 2.4 f.A.
fold activation @ 1 μM (NR2F1 [6]; reporter gene assay, 1 μM): 1.9 f.A.
EC50 (NR2F1 [6]; reporter gene assay, two cell lines): 500 to 1000 nM
enhancement of reporter activity (NR2F1 [6]; two cell lines): approximately two-fold
PNR modulation (PNR (NR2E3)): confirmed albeit with rather low efficacy

RAR activation (RARα): activated RAR
TLX modulation (TLX [8]): not observed
SMILES: CC1(C)CC=C(c2ccccc2)c2cc(/C=C/c3ccc(C(=O)O)cc3)ccc21 [compound 17]
IC50 (full-length TLX): 159 nM
toxicity in HEK293T cells used for the reporter gene assays (HEK293T cells): pronounced toxicity
activity on RARs and RXRs (RARs and RXRs): agonism on RARs and RXRs
effect on atrophin binding to TLX LBD (TLX LBD): displacement of atrophin
Kd (TLX LBD; no precise value reported): ~1000 nM
IC50 (TLX [7]): 367 nM

SMILES: CC1(C)CCC(C)(C)c2cc(C3(c4ccc(C(=O)O)cc4)OCCO3)ccc21 [compound 11]
EC50 (RXRα [9]): 29 nM
RXR activation (RXRα [10]): strong RXR activation
TR4 off-target activity (TR4): off-target activities
PNR modulation (PNR (NR2E3)): off-target activities
EC50 (RXRγ): 232 nM
TR2 off-target activity (TR2): off-target activities
EC50 (RXRβ): 98 nM
